Experimental data taken from the NIST ThermoML archive (doi:10.1016/j.jct.2015.08.022).
± gives the expanded uncertainty stated by the source.

Tests used:
[1] = Molar enthalpy of transition or fusion; details: Crystal; DSC
[2] = Crystal; DTA

SMILES: Nc1ccc(C(=O)O)cc1 [4-aminobenzoic acid]
- Molar enthalpy of transition or fusion [1]: 25 ± 0.7 kJ/mol
- Normal melting temperature [2]: 185.6 ± 0.4 °C

SMILES: NNC(=O)c1ccncc1 [isonicotinic acid hydrazide]
- Molar enthalpy of transition or fusion [1]: 31.1 ± 0.8 kJ/mol
- Normal melting temperature [2]: 170.4 ± 0.4 °C

SMILES: NC(=O)c1cnccn1 [pyrazinecarboxamide]
- Molar enthalpy of transition or fusion [1]: 27.1 ± 0.7 kJ/mol
- Normal melting temperature [2]: 189.4 ± 0.4 °C
